Counter-ions that a name gives are not always drawn.
Biological target: T1, human muscarinic receptors M3 (Homo sapiens, UniProt P20309)
T1 construct: expressed in transfected cells; host or cells: CHO-K1 (chinese hamster ovary-K1), stably transfected; membrane preparations
Assay: biochemical
Format: binding
Conditions: for inhibition at 0.1 µM: read-out: % INHIBITION concentration: 1.00E−07 M; for inhibition at 0.01 µM: read-out: % INHIBITION concentration: 1.00E−08 M

T1 sequence (P20309 whole entry): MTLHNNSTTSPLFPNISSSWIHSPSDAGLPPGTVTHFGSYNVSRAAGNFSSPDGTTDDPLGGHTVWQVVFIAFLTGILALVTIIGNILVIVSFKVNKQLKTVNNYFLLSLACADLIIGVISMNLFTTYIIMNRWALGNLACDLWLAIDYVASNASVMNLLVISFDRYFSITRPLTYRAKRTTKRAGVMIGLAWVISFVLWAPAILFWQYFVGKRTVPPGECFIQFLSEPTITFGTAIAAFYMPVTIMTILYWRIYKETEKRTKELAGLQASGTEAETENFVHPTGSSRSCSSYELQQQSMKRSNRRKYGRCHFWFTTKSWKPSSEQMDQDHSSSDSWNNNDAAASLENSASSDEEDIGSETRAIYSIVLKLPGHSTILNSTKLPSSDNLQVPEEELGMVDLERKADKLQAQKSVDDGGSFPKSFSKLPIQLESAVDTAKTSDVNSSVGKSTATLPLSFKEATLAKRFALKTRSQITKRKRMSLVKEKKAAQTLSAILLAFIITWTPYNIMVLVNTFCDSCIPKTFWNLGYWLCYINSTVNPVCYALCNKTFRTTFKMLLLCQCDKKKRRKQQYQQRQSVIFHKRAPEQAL

Compound | inhibition at 0.1 µM | inhibition at 0.01 µM
O=C(O[C@H]1C[N+]2(CCc3ccccc3)CCC1CC2)[C@](O)(c1ccccc1)C1CCCCC1 [Example 70, (3R)-3-[(2R)-2-Cyclohexyl-2-hydroxy-2-phenylacetoxy]-1-phenethyl-1-azoniabicyclo[2.2.2]octane trifluoroacetate] | 71.2% | 50%
O=C(O[C@H]1C[N+]2(CCc3ccccc3)CCC1CC2)[C@](O)(c1ccco1)C1CCCCC1 [Example 80, (3R)-3-[(2R)-2-Cyclohexyl-2-fur-2-yl-2-hydroxyacetoxy]-1-phenethyl-1-azoniabicyclo[2.2.2]octane trifluoroacetate] | 72.4% | 55.8%
O=C(O[C@H]1C[N+]2(CCCc3ccccc3)CCC1CC2)[C@](O)(c1ccco1)C1CCCCC1 [Example 81, (3R)-3-[(2R)-2-Cyclohexyl-2-fur-2-yl-2-hydroxyacetoxy]-1-(3-phenylpropyl)-1-azoniabicyclo[2.2.2]octane trifluoroacetate] | 70.1% | 45.4%
O=C(O[C@H]1C[N+]2(CCCOc3ccccc3)CCC1CC2)[C@](O)(c1ccccc1)C1CCCC1 [Example 82, (3R)-3-[(2R)-2-Cyclopentyl-2-hydroxy-2-phenylacetoxy]-1-(3-phenoxypropyl)-1-azoniabicyclo[2.2.2]octane trifluoroacetate] | 70.6% | 55.3%
O=C(O[C@H]1C[N+]2(CCc3ccccc3)CCC1CC2)[C@](O)(c1ccccc1)C1CCCC1 [Example 83, (3R)-3-[(2R)-2-Cyclopentyl-2-hydroxy-2-phenylacetoxy]-1-phenethyl-1-azoniabicyclo[2.2.2]octane trifluoroacetate] | 72.7% | 60.3%
O=C(O[C@H]1C[N+]2(CCCSc3ccccc3)CCC1CC2)[C@](O)(c1ccccc1)C1CCCC1 [Example 84, (3R)-3-[(2R)-2-Cyclopentyl-2-hydroxy-2-phenylacetoxy]-1-(3-phenylsulfanylpropyl)-1-azoniabicyclo[2.2.2]octane trifluoroacetate] | 68.3% | 41%
O=C(O[C@H]1C[N+]2(CCc3ccccc3)CCC1CC2)[C@@](O)(c1ccccc1)C1CCCC1 [Example 86, (3R)-3-[(2S)-2-Cyclopentyl-2-hydroxy-2-phenylacetoxy]-1-phenethyl-1-azoniabicyclo[2.2.2]octane trifluoroacetate] | 68.2% | 37.2%
O=C(O[C@H]1C[N+]2(CCCOc3ccccc3)CCC1CC2)[C@](O)(c1cccs1)C1CCCCC1 [Example 88, (3R)-3-[(2S)-2-Cyclohexyl-2-hydroxy-2-thien-2-ylacetoxy]-1-(3-phenoxypropyl)-1-azoniabicyclo[2.2.2]octane trifluoroacetate] | 65.5% | 35.7%
O=C(O[C@H]1C[N+]2(CCc3ccccc3)CCC1CC2)[C@](O)(c1cccs1)C1CCCCC1 [Example 89, (3R)-3-[(2S)-2-Cyclohexyl-2-hydroxy-2-thien-2-ylacetoxy]-1-phenethyl-1-azoniabicyclo[2.2.2]octane trifluoroacetate] | 68.5% | 51.3%
O=C(O[C@H]1C[N+]2(CCc3ccccc3)CCC1CC2)[C@@](O)(c1cccs1)C1CCCCC1 [Example 92, (3R)-3-[(2R)-2-Cyclohexyl-2-hydroxy-2-thien-2-ylacetoxy]-1-phenethyl-1-azoniabicyclo[2.2.2]octane trifluoroacetate] | 69.4% | 49.2%
CC(C)[N+]1(C)[C@@H]2CC[C@H]1C[C@@H](OC(=O)C(CO)c1ccccc1)C2 (stereo partly shown) [Ipratropium bromide, reference compound] | 93.8% | 67.2%

Source: patent publication US7122558B2 (priority 2000, dated 2006)
